Results on three compounds are retold here after ChEMBL document CHEMBL3392951, “Discovery of indole-derived pyridopyrazine-1,6-dione γ-secretase modulators that target presenilin” (Bioorg Med Chem Lett, 2015).

A short description of this series: Octanol-water partition coefficient, log D of the compound at pH 7.4 by shake flask method. It counts as physicochemical.

Structures are written as SMILES.

As usually defined, the logD is lipophilicity at a set pH, counting ionised and neutral species. Take `Cc1cn(-c2ccc3n(c2=O)CCN(Cc2cccc4ccccc24)C3=O)cn1`: the pH-dependent lipophilicity (logD) is 2.7.

`CCn1cc(CN2CCn3c(ccc(-n4cnc(C)c4)c3=O)C2=O)c2ccc(C(F)(F)F)cc21` had a logD of 4.1.

For `Cc1cn(-c2ccc3n(c2=O)CCN(Cc2cccc4ccc(C(F)(F)F)cc24)C3=O)cn1`, the logD was found to be 3.3.
